Where “and” joins values, the source holds several entries; their conditions need not be identical. Equal values may be shown once. Inconclusive results and toxic doses are left out. Rule as the data show it: active = T/C of 150% or more; inactive = T/C below 125%.
Test system: L1210 leukemia ip in BDF1 mice, survival T/C
Experiment: NCI In Vivo Anticancer Drug Screen. Data for tumor model L1210 Leukemia (intraperitoneal) in B6D2F1 (BDF1) mice
Conditions: higher = longer survival
Outline: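 Read-out is survival time, reported as the treated-group measurement over the vehicle-control measurement.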

Measured: T/C

N=C(N)SCc1c2ccccc2c(CSC(=N)N)c2ccccc12
inactive: endpoint: mean survival time, dose: 0.1 mg/kg/injection, schedule: Q07DX002 (ip), vehicle: saline 97 % of control | endpoint: mean survival time, dose: 0.11 mg/kg/injection, schedule: Q01DX Z (ip), vehicle: saline 110 % of control | endpoint: mean survival time, dose: 0.2 mg/kg/injection, schedule: Q01DX Z (ip), vehicle: carboxymethylcellulose (CMC) 113 % of control | endpoint: mean survival time, dose: 0.2 mg/kg/injection, schedule: Q07DX002 (ip), vehicle: saline 103 % of control | endpoint: mean survival time, dose: 0.3 mg/kg/injection, schedule: Q01DX Z (ip), vehicle: carboxymethylcellulose (CMC) 110 % of control | endpoint: mean survival time, dose: 0.3 mg/kg/injection, schedule: Q03HX008 (ip), vehicle: other 113 % of control | endpoint: mean survival time, dose: 0.37 mg/kg/injection, schedule: Q01DX Z (ip), vehicle: carboxymethylcellulose (CMC) 103 % of control | endpoint: mean survival time, dose: 0.39 mg/kg/injection, schedule: Q07DX002 (ip), vehicle: saline 92 % of control | endpoint: mean survival time, dose: 0.62 mg/kg/injection, schedule: Q#A X Z (ip), vehicle: carboxymethylcellulose (CMC) 111 % of control | endpoint: mean survival time, dose: 0.63 mg/kg/injection, schedule: Q01DX Z (im), vehicle: carboxymethylcellulose (CMC) 112 % of control | endpoint: mean survival time, dose: 0.63 mg/kg/injection, schedule: Q01DX Z (sc), vehicle: carboxymethylcellulose (CMC) 106 % of control | endpoint: mean survival time, dose: 0.75 mg/kg/injection, schedule: Q01DX Z (im), vehicle: carboxymethylcellulose (CMC) 106 % of control | endpoint: mean survival time, dose: 0.78 mg/kg/injection, schedule: Q07DX002 (ip), vehicle: saline 110 % of control | endpoint: mean survival time, dose: 1.25 mg/kg/injection, schedule: Q01DX009 (sc), vehicle: carboxymethylcellulose (CMC) 92 % of control | endpoint: mean survival time, dose: 1.25 mg/kg/injection, schedule: Q01DX Z (sc), vehicle: carboxymethylcellulose (CMC) 103 % of control and 112 % of control | endpoint: mean survival time, dose: 1.5 mg/kg/injection, schedule: Q01DX Z (ip), vehicle: saline 112 % of control | endpoint: mean survival time, dose: 2.5 mg/kg/injection, schedule: Q01DX009 (sc), vehicle: carboxymethylcellulose (CMC) 92 % of control | endpoint: mean survival time, dose: 2.5 mg/kg/injection, schedule: Q01DX Z (sc), vehicle: carboxymethylcellulose (CMC) 106 % of control and 113 % of control | endpoint: mean survival time, dose: 3.12 mg/kg/injection, schedule: Q01DX Z (im), vehicle: carboxymethylcellulose (CMC) 112 % of control | endpoint: mean survival time, dose: 3.12 mg/kg/injection, schedule: Q01DX Z (ip), vehicle: carboxymethylcellulose (CMC) 112 % of control | endpoint: mean survival time, dose: 5.0 mg/kg/injection, schedule: Q01DX006 (iv), vehicle: carboxymethylcellulose (CMC) 108 % of control | endpoint: mean survival time, dose: 5.0 mg/kg/injection, schedule: Q01DX009 (sc), vehicle: carboxymethylcellulose (CMC) 92 % of control | endpoint: mean survival time, dose: 5.0 mg/kg/injection, schedule: Q01DX Z (im), vehicle: carboxymethylcellulose (CMC) 113 % of control | endpoint: mean survival time, dose: 10.0 mg/kg/injection, schedule: Q01DX006 (iv), vehicle: carboxymethylcellulose (CMC) 96 % of control and 111 % of control | endpoint: mean survival time, dose: 10.0 mg/kg/injection, schedule: Q01DX009 (sc), vehicle: carboxymethylcellulose (CMC) 98 % of control | endpoint: mean survival time, dose: 10.0 mg/kg/injection, schedule: Q01DX Z (oral), vehicle: carboxymethylcellulose (CMC) 108 % of control | endpoint: mean survival time, dose: 10.0 mg/kg/injection, schedule: Q01DX Z (sc), vehicle: carboxymethylcellulose (CMC) 108 % of control | endpoint: mean survival time, dose: 12.5 mg/kg/injection, schedule: Q01DX Z (im), vehicle: carboxymethylcellulose (CMC) 110 % of control | endpoint: mean survival time, dose: 12.5 mg/kg/injection, schedule: Q03HX008 (ip), vehicle: carboxymethylcellulose (CMC) 107 % of control | endpoint: mean survival time, dose: 17.0 mg/kg/injection, schedule: Q01DX001 (ip), vehicle: carboxymethylcellulose (CMC) 111 % of control | endpoint: mean survival time, dose: 20.0 mg/kg/injection, schedule: Q01DX001 (sc), vehicle: carboxymethylcellulose (CMC) 98 % of control | endpoint: mean survival time, dose: 20.0 mg/kg/injection, schedule: Q01DX006 (iv), vehicle: carboxymethylcellulose (CMC) 112 % of control | endpoint: mean survival time, dose: 20.0 mg/kg/injection, schedule: Q01DX009 (sc), vehicle: carboxymethylcellulose (CMC) 95 % of control and 100 % of control | endpoint: mean survival time, dose: 20.0 mg/kg/injection, schedule: Q01DX Z (im), vehicle: carboxymethylcellulose (CMC) 106 % of control | endpoint: mean survival time, dose: 20.0 mg/kg/injection, schedule: Q01DX Z (oral), vehicle: carboxymethylcellulose (CMC) 111 % of control | endpoint: mean survival time, dose: 20.0 mg/kg/injection, schedule: Q01DX Z (sc), vehicle: carboxymethylcellulose (CMC) 106 % of control and 109 % of control | endpoint: mean survival time, dose: 25.0 mg/kg/injection, schedule: Q01DX017 (ip), vehicle: carboxymethylcellulose (CMC) 102 % of control | endpoint: mean survival time, dose: 25.0 mg/kg/injection, schedule: Q03HX040 (ip), vehicle: carboxymethylcellulose (CMC) 100 % of control | endpoint: mean survival time, dose: 30.0 mg/kg/injection, schedule: Q01DX009 (sc), vehicle: carboxymethylcellulose (CMC) 100 % of control | endpoint: mean survival time, dose: 32.0 mg/kg/injection, schedule: Q03HX024 (ip), vehicle: carboxymethylcellulose (CMC) 97 % of control | endpoint: mean survival time, dose: 32.0 mg/kg/injection, schedule: Q03HX024 (ip), vehicle: other 101 % of control | endpoint: mean survival time, dose: 40.0 mg/kg/injection, schedule: Q01DX001 (sc), vehicle: carboxymethylcellulose (CMC) 104 % of control | endpoint: mean survival time, dose: 41.0 mg/kg/injection, schedule: Q01DX Z (ip), vehicle: saline 105 % of control | endpoint: mean survival time, dose: 44.0 mg/kg/injection, schedule: Q01DX009 (sc), vehicle: carboxymethylcellulose (CMC) 101 % of control | endpoint: mean survival time, dose: 48.0 mg/kg/injection, schedule: Q01DX Z (ip), vehicle: carboxymethylcellulose (CMC) 101 % of control | endpoint: mean survival time, dose: 50.0 mg/kg/injection, schedule: Q03HX008 (ip), vehicle: carboxymethylcellulose (CMC) 113 % of control | endpoint: mean survival time, dose: 50.0 mg/kg/injection, schedule: Q03HX016 (ip), vehicle: carboxymethylcellulose (CMC) 94 % of control | endpoint: mean survival time, dose: 50.0 mg/kg/injection, schedule: Q03HX024 (ip), vehicle: carboxymethylcellulose (CMC) 102 % of control | endpoint: mean survival time, dose: 61.5 mg/kg/injection, schedule: Q01DX Z (ip), vehicle: saline 92 % of control | endpoint: mean survival time, dose: 66.0 mg/kg/injection, schedule: Q01DX009 (sc), vehicle: carboxymethylcellulose (CMC) 102 % of control | endpoint: mean survival time, dose: 80.0 mg/kg/injection, schedule: Q01DX001 (sc), vehicle: carboxymethylcellulose (CMC) 103 % of control | endpoint: mean survival time, dose: 80.0 mg/kg/injection, schedule: Q01DX Z (oral), vehicle: carboxymethylcellulose (CMC) 105 % of control and 106 % of control | endpoint: mean survival time, dose: 100.0 mg/kg/injection, schedule: Q01DX009 (ip), vehicle: saline 92 % of control | endpoint: mean survival time, dose: 100.0 mg/kg/injection, schedule: Q01DX009 (sc), vehicle: carboxymethylcellulose (CMC) 107 % of control | endpoint: mean survival time, dose: 100.0 mg/kg/injection, schedule: Q06HX004 (ip), vehicle: carboxymethylcellulose (CMC) 93 % of control | endpoint: mean survival time, dose: 100.0 mg/kg/injection, schedule: Q08DX003 (ip), vehicle: carboxymethylcellulose (CMC) 108 % of control | endpoint: mean survival time, dose: 160.0 mg/kg/injection, schedule: Q01DX001 (sc), vehicle: carboxymethylcellulose (CMC) 103 % of control | endpoint: mean survival time, dose: 200.0 mg/kg/injection, schedule: Q01DX009 (ip), vehicle: carboxymethylcellulose (CMC) 113 % of control | endpoint: mean survival time, dose: 200.0 mg/kg/injection, schedule: Q01DX017 (ip), vehicle: carboxymethylcellulose (CMC) 105 % of control | endpoint: mean survival time, dose: 200.0 mg/kg/injection, schedule: Q01DX Z (im), vehicle: carboxymethylcellulose (CMC) 112 % of control | endpoint: mean survival time, dose: 200.0 mg/kg/injection, schedule: Q08DX002 (ip), vehicle: carboxymethylcellulose (CMC) 113 % of control | endpoint: mean survival time, dose: 200.0 mg/kg/injection, schedule: Q08DX003 (ip), vehicle: carboxymethylcellulose (CMC) 104 % of control | endpoint: mean survival time, dose: 200.0 mg/kg/injection, schedule: Q#A X002 (ip), vehicle: saline 111 % of control | endpoint: mean survival time, dose: 266.0 mg/kg/injection, schedule: Q01DX001 (sc), vehicle: carboxymethylcellulose (CMC) 103 % of control | endpoint: mean survival time, dose: 300.0 mg/kg/injection, schedule: Q03DX Z (ip), vehicle: saline 113 % of control | endpoint: mean survival time, dose: 320.0 mg/kg/injection, schedule: Q01DX001 (sc), vehicle: carboxymethylcellulose (CMC) 103 % of control | endpoint: mean survival time, dose: 320.0 mg/kg/injection, schedule: Q01DX Z (oral), vehicle: carboxymethylcellulose (CMC) 112 % of control | endpoint: mean survival time, dose: 400.0 mg/kg/injection, schedule: Q01DX001 (oral), vehicle: carboxymethylcellulose (CMC) 106 % of control | endpoint: mean survival time, dose: 400.0 mg/kg/injection, schedule: Q01DX001 (sc), vehicle: carboxymethylcellulose (CMC) 102 % of control | endpoint: mean survival time, dose: 400.0 mg/kg/injection, schedule: Q04DX005 (ip), vehicle: carboxymethylcellulose (CMC) 97 % of control | endpoint: mean survival time, dose: 400.0 mg/kg/injection, schedule: Q07DX Z (ip), vehicle: saline 102 % of control | endpoint: mean survival time, dose: 400.0 mg/kg/injection, schedule: Q08DX002 (ip), vehicle: saline 97 % of control | endpoint: mean survival time, dose: 600.0 mg/kg/injection, schedule: Q01DX001 (sc), vehicle: carboxymethylcellulose (CMC) 98 % of control | endpoint: mean survival time, dose: 640.0 mg/kg/injection, schedule: Q01DX Z (oral), vehicle: carboxymethylcellulose (CMC) 112 % of control | endpoint: mean survival time, dose: 800.0 mg/kg/injection, schedule: Q01DX001 (oral), vehicle: carboxymethylcellulose (CMC) 105 % of control | endpoint: mean survival time, dose: 800.0 mg/kg/injection, schedule: Q08DX002 (ip), vehicle: carboxymethylcellulose (CMC) 109 % of control and 111 % of control | endpoint: mean survival time, dose: 800.0 mg/kg/injection, schedule: Q08DX003 (ip), vehicle: carboxymethylcellulose (CMC) 107 % of control | endpoint: mean survival time, dose: 900.0 mg/kg/injection, schedule: Q01DX001 (sc), vehicle: carboxymethylcellulose (CMC) 112 % of control | endpoint: mean survival time, dose: 1200.0 mg/kg/injection, schedule: Q01DX001 (oral), vehicle: carboxymethylcellulose (CMC) 97 % of control | endpoint: mean survival time, dose: 1280.0 mg/kg/injection, schedule: Q01DX Z (oral), vehicle: carboxymethylcellulose (CMC) 101 % of control | endpoint: mean survival time, dose: 1340.0 mg/kg/injection, schedule: Q01DX001 (oral), vehicle: carboxymethylcellulose (CMC) 107 % of control | endpoint: mean survival time, dose: 1600.0 mg/kg/injection, schedule: Q01DX001 (oral), vehicle: carboxymethylcellulose (CMC) 100 % of control | endpoint: mean survival time, dose: 2000.0 mg/kg/injection, schedule: Q01DX001 (oral), vehicle: carboxymethylcellulose (CMC) 112 % of control | endpoint: mean survival time, dose: 3000.0 mg/kg/injection, schedule: Q01DX001 (oral), vehicle: carboxymethylcellulose (CMC) 101 % of control | endpoint: median survival time, dose: 50.0 mg/kg/injection, schedule: Q04DX003 (ip), vehicle: steriod suspending solution 111 % of control | endpoint: median survival time, dose: 100.0 mg/kg/injection, schedule: Q01DX009 (ip), vehicle: steriod suspending solution 94 % of control | endpoint: median survival time, dose: 100.0 mg/kg/injection, schedule: Q04DX003 (ip), vehicle: steriod suspending solution 111 % of control | endpoint: median survival time, dose: 125.0 mg/kg/injection, schedule: Q01DX001 (sc), vehicle: steriod suspending solution 100 % of control | endpoint: median survival time, dose: 250.0 mg/kg/injection, schedule: Q01DX001 (sc), vehicle: steriod suspending solution 111 % of control | endpoint: median survival time, dose: 400.0 mg/kg/injection, schedule: Q04DX003 (sc), vehicle: steriod suspending solution 111 % of control | endpoint: median survival time, dose: 500.0 mg/kg/injection, schedule: Q01DX001 (sc), vehicle: steriod suspending solution 100 % of control | endpoint: median survival time, dose: 800.0 mg/kg/injection, schedule: Q04DX003 (sc), vehicle: steriod suspending solution 111 % of control | endpoint: median survival time, dose: 1000.0 mg/kg/injection, schedule: Q01DX001 (sc), vehicle: steriod suspending solution 105 % of control

From PubChem BioAssay AID248 (DTP/NCI, 2004)
